{
  "source": "patent EP2873675A1",
  "about": "“Peptide-based peroxidase inhibitors and methods of using same” (The Medical College of Wisconsin, Inc., priority 2013, dated 2015)",
  "key": {"[1]": {"assay": "Solubility in water / physiological buffers", "assay_type": "physicochemical", "settings": "can be added directly to physiological buffers"}, "SCD mice [2]": {"system": "SCD mice", "assay": "Immunofluorescence of aortas of SCD mice", "assay_type": "in vivo", "settings": "IP 0.3 mg/kg/d, three weeks; vs non-treated SCD mice", "procedure": "Immunofluorescence Studies. In a separate study, SCD mice were treated with KYC (IP, 0.3 mg/kg/d). After three weeks treatment, mice were deeply anesthetized and euthanized by exsanguination. Thoracic and abdominal aortas were surgically removed and rinsed free of blood elements using ice cold PBS. Aortas were fixed, imbedded in paraffin, and sectioned."}, "SCD mice [3]": {"system": "SCD mice", "assay": "WBC counts in SCD mice (cytometry)", "assay_type": "in vivo", "settings": "SCD mice treated for three weeks", "procedure": "MPO improves vascular function in SCD mice. To determine whether inhibiting MPO improves vascular function and/or reduces inflammation in vivo, SCD mice were treated with KYC for three weeks. […] Such physiological and structural changes are consistent with immunofluorescent studies showing that chlorotyrosine and MPO levels are reduced in the aortas of KYC-treated SCD mice compared with non-treated SCD mice (Fig. 13). High WBC counts are indicative of on-going inflammation in SCD and predictive of future vaso-occlusive events. Accordingly, WBC levels were quantified in the SCD mice using standard cytometry assays."}, "MPO [4]": {"system": "MPO", "assay": "MPO-mediated LDL Trp oxidation (Trp intrinsic fluorescence)", "assay_type": "biochemical", "settings": "MPO/H2O2/NO2- system, 30 min, room temperature", "procedure": "MPO-mediated LDL Trp Oxidation: Reaction mixtures containing LDL (0.15 mg/mL), NaNO2 (100 µM), H2O2 (100 µM), MPO (20 nM) and increasing concentrations of KYC in a phosphate buffer (100 mM, pH 7.4) containing DTPA (100 µM) were incubated at room temperature for 30 min. Reactions were stopped by addition of catalase (2,000 units/mL) and the oxidation of Trp in LDL was determined by measuring changes in the intrinsic fluorescence of Trp (Ex 294nm/Em 345 nm) using a LC-50 fluorometer (Perkin Elmer, Waltham MA)."}, "MPO [5]": {"system": "MPO", "assay": "MPO-mediated LDL oxidation (conjugated diene formation, absorbance at 234 nm)", "assay_type": "biochemical", "settings": "25 µM; in the absence of nitrite"}, "SCD mice [6]": {"system": "SCD mice", "assay": "Vasodilatation of pressurized facialis arteries from treated SCD mice", "assay_type": "in vivo", "settings": "IP 0.3 mg/kg/d for 3 weeks; response to ACh; untreated SCD ∼20%", "procedure": "Murine Model of Sickle Cell Disease. Mice treated with KYC in vivo. SCD mice were treated with KYC (intraperitoneal injection: IP 0.3 mg/kg/d) or with PBS (IP 100 µL) for 3 weeks. Anesthesia was induced with Ketamine (100mg/kg) + Xylazine (10mg/kg) cocktail (ip) and then sacrificed by exsanguination. Facialis arteries were atraumatically dissected and maintained in cooled MOPS solution (in mM: NaCl 145, KCL 4.7, CaCl2 2, NaH2PO4 1.2, MgSO4, 1.2, pyruvate 2, EDTA 0.02, MOPS 3.0, and glucose 5.0, at pH 7.4). Vessels were then submerged in a MOPS bath, mounted on MOPS-containing glass capillary tubes, internally pressurized (60 mmHg), and warmed to 37°C. Internal vascular diameters were measured with a calibrated video-microscope (Boeckeler). After the vessel was allowed to acclimate to 37°C (approximately 30 min), the diameter was measured and recorded (Dmax). […] A control dose-response curve using acetylcholine (ACh, 10^-7 - 10^-4 M) was performed and vessel diameter recorded. […] Vasodilation to papaverine (2.0X10^-4 M) was determined after all treatments to ensure smooth muscle viability. Vasodilation was calculated as a percent of maximal vessel diameter change.\nVasodilatation. […] Physiological responses to increasing concentrations of acetylcholine (ACh) were determined by videomicroscopy as previously described."}, "MPO [7]": {"system": "MPO", "assay": "MPO-catalyzed HOCl production (taurine/TMB assay)", "assay_type": "biochemical", "procedure": "MPO-mediated HOCl Production. MPO (20 nM) was incubated with H2O2 (50 µM), NaCl (150 mM), taurine (5 mM) and increasing concentrations of KYC in phosphate buffer (100 mM, pH 7.4) which also contained diethylene triamine pentaacetic acid (DTPA, 100 µM) to prevent non-specific, divalent metal cation oxidation for 30 min. Reactions were halted by addition of catalase. Chlorotaurine was quantified using the 3,3-,5,5-tetramethylbenzidine (TMB) assay. Briefly, 400 µL of reaction solution was mixed with 100 µL of 2 mM TMB, 100 µM NaI containing 10% dimethylformamide (DMF) in 400 mM acetate buffer (pH 5.4). After 5 min, absorbance (650 nm) was recorded on a UV/Vis spectrophotometer (Agilent Model 8453).\nMPO-catalyzed HOCl Production: MPO (20 nM) was incubated with H2O2 (50 µM), NaCl (150 mM), taurine (5 mM) and increasing concentrations of KYC in a phosphate buffer (100 mM, pH 7.4) containing diethylene triamine pentaacetic acid (DTPA, 100 µM) to prevent non-specific, divalent metal cation oxidation for 30 min. Reactions were halted by addition of catalase (2,000 units/mL). Chlorotaurine was quantified using the TMB assay (66). Briefly, 400 µL of reaction solution was mixed with 100 µL of 2 mM TMB, 100 µM NaI containing 10% dimethylformamide (DMF) in 400 mM acetate buffer (pH 5.4). After 5 min, absorbance (650 nm) was recorded on a UV/Vis spectrophotometer (Agilent Model 8453)."}, "SCD mice [8]": {"system": "SCD mice", "assay": "Vessel wall thickness of facialis arteries from SCD mice", "assay_type": "in vivo", "settings": "0.3 mg/kg/d, 3 weeks; after papaverine; P=0.10", "procedure": "Vessel Wall Thickness. After completing the vasodilatation studies, the pressurized vessels were maximally dilated by addition of papaverine (10^-4 mol/L, 4 min), and outside and inside diameters recorded. An index of wall thickness was calculated using the following formula; ([outside diameter/inside diameter]/2)/outside diameter, as previously described."}},
  "note": "Entries after “also recorded” stand apart in the source; their conditions may differ. Residues, ends and D or L forms follow the SMILES beside them.",
  "data": [
    {"compound": "CC(=O)N[C@@H](CCCCN)C(=O)N[C@@H](Cc1ccc(O)cc1)C(=O)N[C@@H](CS)C(N)=O", "note": "[KYC, N-acetyl Lysyltyrosylcysteine amide] (Ac-Lys-Tyr-Cys-NH2)", "values": [
      {"measurement": "solubility in water", "setting": "[1]", "value": "highly water soluble"},
      {"measurement": "MPO levels in the aortas", "setting": "SCD mice [2]", "value": "reduced"},
      {"measurement": "chlorotyrosine levels in the aortas", "setting": "SCD mice [2]", "value": "reduced"},
      {"measurement": "WBC counts", "setting": "SCD mice [3]", "value": "more than half; also recorded: reduced by half"},
      {"measurement": "MPO-dependent oxidation of Trp residues in LDL", "setting": "MPO [4]", "value": "protected the Trp residues in LDL against MPO-dependent oxidation"},
      {"measurement": "MPO/H2O2-mediated LDL oxidation", "setting": "MPO [5]", "value": "inhibited LDL oxidation; also recorded: did not increase LDL oxidation"},
      {"measurement": "vasodilatation, percent of maximal vessel diameter change", "setting": "SCD mice [6]", "value": "~60", "unit": "%"},
      {"measurement": "MPO-catalyzed HOCl production, comparison at equimolar concentration", "setting": "MPO [7]; 12.5 µM", "value": "comparable to that of tryptophan; also recorded: significantly more effective at inhibiting MPO-dependent HOCl production than GSH"},
      {"measurement": "inhibition of HOCl production", "setting": "MPO [7]; 12.5 µM", "value": "~75", "unit": "%"},
      {"measurement": "MPO-dependent HOCl production", "setting": "MPO [7]; 25 µM", "value": "completely inhibits; also recorded: completely ablated"},
      {"measurement": "IC50", "setting": "MPO [7]; MPO 20 nM, H2O2 50 µM, NaCl 150 mM, 30 min", "value": "~7", "unit": "µM"},
      {"measurement": "vessel wall thickness", "setting": "SCD mice [8]", "value": "reduces vessel wall thickness"}
    ]}
  ]
}
